Values of other authors as cited in patent US12096767B2, “Residual disinfectant composition” (Kimberly-Clark Worldwide, Inc., priority 2015, dated 2024).

Conditions: determined at a temperature of 25° C.

O=CC(=O)O [glyoxylic acid]
pka1: 3.18
